In brackets after ≈: the same amount, converted by molar mass. Bridge positions count the residues as written; N and C are the ends. Peptide text beside a SMILES is read from it. I, II: the chains in the order shown. * marks the point of attachment. Palmitoyl = CCCCCCCCCCCCCCCC(=O)*; Decanoyl = CCCCCCCCCC(=O)*; Octanoyl = CCCCCCCC(=O)*
Legend:
Pseudomonas aeruginosa [1] = test: Antibacterial activity against Pseudomonas aeruginosa ATCC 27853 after 24 hrs by broth microdilution method; format: functional
Pseudomonas aeruginosa [2] = test: Induction of 1-N-phenylnaphthylamine uptake in Pseudomonas aeruginosa DM23155 at 400 uM after 1 hr by fluorescence assay relative to polymyxin B; format: functional
Pseudomonas aeruginosa [3] = test: Antibacterial activity against Pseudomonas aeruginosa DR4877 after 24 hrs by broth microdilution method; format: functional
Pseudomonas aeruginosa [4] = test: Antibacterial activity against Pseudomonas aeruginosa DR18531 after 24 hrs by broth microdilution method; format: functional
Pseudomonas aeruginosa [5] = test: Antibacterial activity against Pseudomonas aeruginosa DM4150R after 24 hrs by broth microdilution method; format: functional
Pseudomonas aeruginosa [6] = test: Antibacterial activity against Pseudomonas aeruginosa DM23257 after 24 hrs by broth microdilution method; format: functional
Klebsiella pneumoniae [7] = test: Antibacterial activity against Klebsiella pneumoniae DM4299 after 24 hrs by broth microdilution method; format: functional; details: DM4299, 24 h
[8] = Induction of calcein leakage from DOPC artificial membrane at 1:32 ratio of compound to lipid by fluorescence assay; format: physicochemical
Pseudomonas aeruginosa [9] = test: Antibacterial activity against Pseudomonas aeruginosa DU14476 after 24 hrs by broth microdilution method; format: functional
Lipopolysaccharide (LPS) [10] = test: Induction of Escherichia coli 0111:B4 LPS neutralization using p-nitroaniline assessed as concentration required to neutralize 50% after 1 hr by limulus amebocyte lysate assay
Pseudomonas aeruginosa [11] = test: Antibacterial activity against Pseudomonas aeruginosa ATCC 9027 after 24 hrs by broth microdilution method; format: functional
Escherichia coli [12] = test: Antibacterial activity against Escherichia coli ATCC 25922 after 24 hrs by broth microdilution method; format: functional; details: ATCC 25922, 24 h
Lipopolysaccharide (LPS) [13] = test: Displacement of dansylcadaverine from Escherichia coli 0111:B4 LPS at 15 to 30 uM after 5 mins by high-throughput fluorescence displacement assay
Pseudomonas aeruginosa [14] = test: Antibacterial activity against Pseudomonas aeruginosa DM23155 after 24 hrs by broth microdilution method; format: functional; details: DM23155, 24 h
Pseudomonas aeruginosa [15] = test: Antibacterial activity against Pseudomonas aeruginosa DM23376 after 24 hrs by broth microdilution method; format: functional
[16] = Toxicity in New Zealand white rabbit erythrocytes assessed as hemolytic activity after 60 mins; format: cell-based, Oryctolagus cuniculus; details: erythrocyte, 1 h
Pseudomonas aeruginosa [17] = test: Antibacterial activity against Pseudomonas aeruginosa DR5790 after 24 hrs by broth microdilution method; format: functional
Pseudomonas aeruginosa [18] = test: Induction of cytoplasmic membrane disruption in Pseudomonas aeruginosa DM23155 assessed as membrane integrity at 1 to 2 times MIC after 1 hr by fluorescence assay; format: functional
[19] = Induction of calcein leakage from DOPE/DOPG artificial membrane at 1:32 ratio of compound to lipid by fluorescence assay; format: physicochemical
[20] = Self-aggregation activity of the compound using 8-(Phenylamino)-1-naphthalenesulfonic acid as fluorescent probe at 300 uM by fluorescence assay; format: physicochemical
Klebsiella pneumoniae [21] = test: Antibacterial activity against Klebsiella pneumoniae DU31158 after 24 hrs by broth microdilution method; format: functional
Klebsiella pneumoniae [22] = test: Antibacterial activity against Klebsiella pneumoniae DS07955 after 24 hrs by broth microdilution method; format: functional
Escherichia coli [23] = test: Antibacterial activity against Escherichia coli DS17232 after 24 hrs by broth microdilution method; format: functional
Klebsiella pneumoniae [24] = test: Antibacterial activity against Klebsiella pneumoniae DB55301 after 24 hrs by broth microdilution method; format: functional
Klebsiella pneumoniae [25] = test: Antibacterial activity against Klebsiella pneumoniae DS16260 after 24 hrs by broth microdilution method; format: functional
Escherichia coli [26] = test: Antibacterial activity against Escherichia coli DM17528 after 24 hrs by broth microdilution method; format: functional

Molecule | MIC (Klebsiella pneumoniae [7]) [µM] | EC50 (Lipopolysaccharide (LPS) [10]) [µM] | MIC (Escherichia coli [12]) [µM] | Activity (Lipopolysaccharide (LPS) [13]) [%] | MIC (Pseudomonas aeruginosa [14]) [µM] | HC10 [16] [µg/mL] | other results
CCCCCCCCCC(=O)N[C@@H](CCCNC(=N)N)C(=O)NCC(=O)N[C@@H](CCCNC(=N)N)C(=O)N[C@@H](CCCCN)C(=O)NCC(=O)NCC(=O)N[C@@H](CCCNC(=N)N)C(=O)N[C@@H](CCCNC(=N)N)C(=O)NCCCC[C@H](NC(=O)[C@H](CCCNC(=N)N)NC(=O)[C@H](CCCNC(=N)N)NC(=O)CNC(=O)CNC(=O)[C@H](CCCCN)NC(=O)[C@H](CCCNC(=N)N)NC(=O)CNC(=O)[C@H](CCCNC(=N)N)NC(=O)CCCCCCCCC)C(=O)N[C@@H](CCCCN)C(=O)O (I: Decanoyl-RGRKGGRRKK-OH / II: Decanoyl-RGRKGGRR; amide I:9-II:C) | 3 (≈ 7.29 µg/mL) | 142 | 6 (≈ 14.6 µg/mL) | 122 | 3 (≈ 7.29 µg/mL) | > 10000 | MIC (Pseudomonas aeruginosa [1]; ATCC 27853, 24 h): 3 µM (≈ 7.29 µg/mL); Activity (Pseudomonas aeruginosa [2]): 44.3%; MIC (Pseudomonas aeruginosa [3]; DR4877, 24 h): 6 µM (≈ 14.6 µg/mL); MIC (Pseudomonas aeruginosa [4]; DR18531, 24 h): 6 µM (≈ 14.6 µg/mL); MIC (Pseudomonas aeruginosa [5]): 6 µM (≈ 14.6 µg/mL); MIC (Pseudomonas aeruginosa [6]; DM23257, 24 h): 6 µM (≈ 14.6 µg/mL); Activity [8]: Active; MIC (Pseudomonas aeruginosa [9]; DU14476, 24 h): 3 µM (≈ 7.29 µg/mL); MIC (Pseudomonas aeruginosa [11]; ATCC 9027, 24 h): 6 µM (≈ 14.6 µg/mL); MIC (Pseudomonas aeruginosa [15]; DM23376, 24 h): 6 µM (≈ 14.6 µg/mL); MIC (Pseudomonas aeruginosa [17]; DR5790, 24 h): 3 µM (≈ 7.29 µg/mL)
CC(=O)N[C@@H](CCCNC(=N)N)C(=O)NCC(=O)N[C@@H](CCCNC(=N)N)C(=O)N[C@@H](CCCCN)C(=O)N[C@H](C(=O)N[C@H](C(=O)N[C@@H](CCCNC(=N)N)C(=O)N[C@@H](CCCNC(=N)N)C(=O)NCCCC[C@H](NC(=O)[C@H](CCCNC(=N)N)NC(=O)[C@H](CCCNC(=N)N)NC(=O)[C@@H](NC(=O)[C@@H](NC(=O)[C@H](CCCCN)NC(=O)[C@H](CCCNC(=N)N)NC(=O)CNC(=O)[C@H](CCCNC(=N)N)NC(C)=O)C(C)C)C(C)C)C(=O)N[C@@H](CCCCN)C(=O)O)C(C)C)C(C)C (I: Ac-RGRKVVRRKK-OH / II: Ac-RGRKVVRR; amide I:9-II:C) | 6 (≈ 14.2 µg/mL) | > 1000 | 6 (≈ 14.2 µg/mL) | 75.7 | 6 (≈ 14.2 µg/mL) | > 10000 | Activity (Pseudomonas aeruginosa [18]): >80%; Activity [19]: Active
CCCCCCCCCC(=O)N[C@@H](CCCNC(=N)N)C(=O)NCC(=O)N[C@@H](CCCNC(=N)N)C(=O)N[C@@H](CCCCN)C(=O)N[C@H](C(=O)N[C@H](C(=O)N[C@@H](CCCNC(=N)N)C(=O)N[C@@H](CCCNC(=N)N)C(=O)N[C@@H](CCCCN)C(=O)N[C@@H](CCCCN)C(=O)O)C(C)C)C(C)C (Decanoyl-RGRKVVRRKK-OH) | 80 (≈ 115 µg/mL) | 566 | 6 (≈ 8.62 µg/mL) | 78 | 20 (≈ 28.7 µg/mL) | > 10000 | –
CCCCCCCCCCCCCCCC(=O)N[C@@H](CCCNC(=N)N)C(=O)NCC(=O)N[C@@H](CCCNC(=N)N)C(=O)N[C@@H](CCCCN)C(=O)N[C@H](C(=O)N[C@H](C(=O)N[C@@H](CCCNC(=N)N)C(=O)N[C@@H](CCCNC(=N)N)C(=O)N[C@@H](CCCCN)C(=O)N[C@@H](CCCCN)C(=O)O)C(C)C)C(C)C (Palmitoyl-RGRKVVRRKK-OH) | 40 (≈ 60.8 µg/mL) | – | 10 (≈ 15.2 µg/mL) | – | 80 (≈ 122 µg/mL) | 5481 | Activity [20]: Not Active
CC(=O)N[C@@H](CCCNC(=N)N)C(=O)NCC(=O)N[C@@H](CCCNC(=N)N)C(=O)N[C@@H](CCCCN)C(=O)NCC(=O)NCC(=O)N[C@@H](CCCNC(=N)N)C(=O)N[C@@H](CCCNC(=N)N)C(=O)NCCCC[C@H](NC(=O)[C@H](CCCNC(=N)N)NC(=O)[C@H](CCCNC(=N)N)NC(=O)CNC(=O)CNC(=O)[C@H](CCCCN)NC(=O)[C@H](CCCNC(=N)N)NC(=O)CNC(=O)[C@H](CCCNC(=N)N)NC(C)=O)C(=O)N[C@@H](CCCCN)C(=O)O (I: Ac-RGRKGGRRKK-OH / II: Ac-RGRKGGRR; amide I:9-II:C) | 3 (≈ 6.62 µg/mL) | > 1000 | 1.5 (≈ 3.31 µg/mL) | 56.1 | 6 (≈ 13.2 µg/mL) | > 10000 | Activity (Pseudomonas aeruginosa [2]): 1.6%
GENTAMICIN | – | – | – | – | – | – | MIC (Klebsiella pneumoniae [21]): < 0.25 µM; MIC (Pseudomonas aeruginosa [1]): 0.5 µM; MIC (Pseudomonas aeruginosa [3]): > 60 µM; MIC (Klebsiella pneumoniae [22]): > 60 µM; MIC (Escherichia coli [23]): 1 µM; MIC (Pseudomonas aeruginosa [4]): 30 µM; MIC (Pseudomonas aeruginosa [5]): 0.5 µM; MIC (Pseudomonas aeruginosa [6]): 0.5 µM; MIC (Pseudomonas aeruginosa [9]): 25 µM; MIC (Pseudomonas aeruginosa [11]): 0.25 µM; MIC (Klebsiella pneumoniae [24]): 7.5 µM; MIC (Klebsiella pneumoniae [25]): 2 µM; MIC (Pseudomonas aeruginosa [15]): 0.5 µM; MIC (Escherichia coli [26]): < 0.25 µM; MIC (Pseudomonas aeruginosa [17]): 25 µM
CCCCCCCC(=O)N[C@@H](CCCNC(=N)N)C(=O)NCC(=O)N[C@@H](CCCNC(=N)N)C(=O)N[C@@H](CCCCN)C(=O)N[C@H](C(=O)N[C@H](C(=O)N[C@@H](CCCNC(=N)N)C(=O)N[C@@H](CCCNC(=N)N)C(=O)N[C@@H](CCCCN)C(=O)N[C@@H](CCCCN)C(=O)O)C(C)C)C(C)C (Octanoyl-RGRKVVRRKK-OH) | > 80 | > 1000 | 6 (≈ 8.45 µg/mL) | 69.9 | 10 (≈ 14.1 µg/mL) | > 10000 | –
